Activity calls are given as the source filed them. The calls are words filed in the database; no cut-off is given here.
Experiments:
Type in all cases: cell-based
[1] = target: T1, 5-hydroxytryptamine receptor 3A (Homo sapiens, UniProt P46098); test: Binding affinity to C-terminal-His6-tagged 5HT3A receptor (unknown origin) expressed in HEK293 cells after 2 hrs by fluorimetric analysis
T1 sequence (P46098 whole entry): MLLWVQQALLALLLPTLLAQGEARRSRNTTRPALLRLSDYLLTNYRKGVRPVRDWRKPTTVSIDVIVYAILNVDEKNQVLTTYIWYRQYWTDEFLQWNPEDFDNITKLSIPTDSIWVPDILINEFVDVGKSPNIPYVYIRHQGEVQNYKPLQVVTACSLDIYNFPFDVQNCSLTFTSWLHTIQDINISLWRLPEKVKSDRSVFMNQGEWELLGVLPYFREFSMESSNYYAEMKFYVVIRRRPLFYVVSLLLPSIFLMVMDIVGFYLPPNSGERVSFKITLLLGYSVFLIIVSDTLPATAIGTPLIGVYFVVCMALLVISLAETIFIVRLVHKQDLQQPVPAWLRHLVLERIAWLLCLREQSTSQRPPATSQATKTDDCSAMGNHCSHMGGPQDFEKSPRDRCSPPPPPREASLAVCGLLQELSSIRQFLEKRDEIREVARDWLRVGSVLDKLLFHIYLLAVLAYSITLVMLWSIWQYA

[2] = target: T2, 5-hydroxytryptamine receptor 3A (Homo sapiens) (UniProt P46098); test: Binding affinity to C-terminal-His6-tagged 5HT3A receptor (unknown origin) expressed in HEK293 cells assessed as decrease in fluorescence at 10 to 500 nM after 2 hrs by fluorimetric analysis in presence of granisetron
T2 sequence (whole entry): T1 sequence (P46098 whole entry)

[3] = target: T2, 5-hydroxytryptamine receptor 3A (Homo sapiens); test: Binding affinity to C-terminal-His6-tagged 5HT3A receptor (unknown origin) expressed in HEK293 cells assessed as decrease in fluorescence at 10 to 500 nM after 2 hrs by fluorimetric analysis

Kd [1]: 83 nM
Activity [2]: inactive
Activity [3]: Active
SMILES: CN(C)c1ccc2c(-c3ccc(C(=O)NCCCCCNC(=O)CCn4cc(CCN)c5cc(O)ccc54)cc3C(=O)[O-])c3ccc(=[N+](C)C)cc-3oc2c1

From ChEMBL document CHEMBL2321670, “Near native binding of a fluorescent serotonin conjugate to serotonin type 3 receptors” (Bioorg Med Chem Lett, 2013)
